Reference: patent publication US12268674B2, “Mi-2β inhibitor as an immunotherapy agent” (BioVentures, LLC, priority 2021, dated 2025)

Columns and labels:
ASNA1 = molecular target: T1, ASNA1 (Homo sapiens, UniProt O43681); experiment: ATPase profile (ATP acyl phosphate probe); assay type: binding
T1 construct: to get the native cell lysate; host or cells: A375 cell lysate

PFKFB2 = molecular target: T2, PFKFB2 (Homo sapiens, UniProt O60825); experiment: ATPase profile (ATP acyl phosphate probe); assay type: binding; conditions: PFKFB2, SEQ ID NO: 158, ATP BS
T2 construct: to get the native cell lysate; endogenous in cells; host or cells: A375 cell lysate

PRKAG1 = PRKAG1 (Homo sapiens, UniProt P54619); experiment: ATPase profile (ATP acyl phosphate probe); assay type: binding
[1] = Tolerability in C57BL/6 mice (body weight, H&E staining of tissues); assay type: in vivo; conditions: 30 mg/kg/day for 2 weeks
Excerpt: FIG. 11 illustrates In vitro assay for Mi-2β inhibitors. A, The inhibitory activity of Z36 for Mi-2β chromatin modulatory activity, measured as fold changes of Mi-2β activity treated with control vehicle. B, The inhibitory activity of Z36-MP5 with IC50 values against Mi-2β at different ATP concentrations. The curves from top to bottom: ATP 300 (μM), ATP 100 (μM), ATP 30 (μM), and ATP 10 (μM). C, The expression of Irf1, Cxc19 and Cxcl10 and Irf1 mRNA in B16F10 cells treated with Z36-MP5 as indicated concentration for 24 hours was determined with RT-qPCR assay. The four bars from left to right: vehicle control, Z36-MP5 5 μM, Z36-MP5 25 μM, and Z36-MP5 100 μM. D, Z36-MP5-treated (25 μM) GFP-labelled B16F10 cells were pretreated with 10 ng/ml of IFN-γ for 24 hours, before co-culture with activated Pmel-1 T cells at a ratio of 1:1 for three days. The fold changes of survival GFP-positive tumor cells were assayed with flow cytometry. Data presents as means±SD E, The body weight changes of C57BL/6J mice treated with Z36-MP5 (30 mg/kg/day) for 2 weeks. Data are mean±SEM (n=5). […]
Z36-MP5 was chosen for further validation and experimental therapeutics in vivo. […] To investigate its cellular inhibitory activity, B16-F10 cells were treated with Z36-MP5 at concentrations ranging from 5 to 100 μM, and the activation of Mi-2β target genes measured by RT-qPCR. […]

PEX1 = molecular target: T3, PEX1 (Homo sapiens, UniProt O43933); experiment: ATPase profile (ATP acyl phosphate probe); assay type: binding; conditions: PEX1, SEQ ID NO: 156, ATP BS
T3 construct: to get the native cell lysate; endogenous in cells; host or cells: A375 cell lysate

AK4 = molecular target: T4, AK4 (Homo sapiens, UniProt P27144); experiment: ATPase profile (ATP acyl phosphate probe); assay type: binding; conditions: AK4, SEQ ID NO: 35, ATP BS
T4 construct: to get the native cell lysate; host or cells: A375 cell lysate

ABCC4 = molecular target: T5, ABCC4 (Homo sapiens, UniProt O15439); experiment: ATPase profile (ATP acyl phosphate probe); assay type: binding
T5 construct: to get the native cell lysate; host or cells: A375 cell lysate

NVL = molecular target: T6, NVL (Homo sapiens, UniProt O15381); experiment: ATPase profile (ATP acyl phosphate probe); assay type: binding
T6 construct: to get the native cell lysate; endogenous in cells; host or cells: A375

CLPB = molecular target: T7, CLPB (Homo sapiens, UniProt Q9H078); experiment: ATPase profile (ATP acyl phosphate probe); assay type: binding; conditions: SEQ ID NO: 58, ATP BS
T7 construct: endogenous in cells; host or cells: A375 cell lysate

B16F10 cells = experiment: Co-culture assay of B16F10 cells with activated Pmel-1 T cells; assay type: cell-based, mouse; conditions: 25 μM; IFN-γ pretreated; activated Pmel-1 T cells 1:1, three days
Method: Pmel-1 TCR transgenic mice were purchased from Jackson Laboratory (stock #005023). The CD8 T cells were isolated from spleen and lymph nodes from Pmel-1 transgenic mice using the CD8a^+ T Cell Isolation Kit, mouse (Miltenyi Biotec, Order no: 130-104-075) according to the manufacturer's protocol. Freshly isolated CD8 T cells were stimulated with anti-CD3/CD28 beads (Thermo Fisher Scientific #11452D) for 3 days, and then the recombinant mouse IL-2 (Biolegend, #575406) was added at 20 ng/ml. After 6 days activation, T cells were used for co-culture with B16F10 cells.
B16F10 cells with shMi-2β or shScrambles were transfected with GFP expression vector pcDNA3-EGFP (Plasmid #13031), and the stable cell line was selection with 800 μg/mL G418. For in vitro validation, Mi-2β-deficient B16F10 cells (GFP positive) were mixed with control B16F10 cells (GFP negative) at a 1:1 ratio. The cells were treated with 10 ng/ml of IFN-γ for 24 hours, and then co-cultured with activated Pmel-1 T cells. After three days, the depletion of Mi-2β knockdown B16F10 cells was determined by FACS, comparing the percentage of knockdown cells (GFP positive) to control B16F10 cells (GFP negative).

HNRNPU = molecular target: T8, HNRNPU (Homo sapiens, UniProt Q00839); experiment: ATPase profile (ATP acyl phosphate probe); assay type: binding; conditions: SEQ ID NO: 92, ATP BS
T8 construct: endogenous in cells; host or cells: A375

[2] = test system: Mi-2β function (CXCL9, CXCL10, IRF1 expression) in A375 cells; experiment: Cell-based assay of inhibitory activity on Mi-2β function, A375; conditions: summary of Table 3 (A375 and B16)
Method: The total RNA was extracted with QIAGEN RNeasy kit […] for cDNA synthesis with SuperScript II Reverse Transcriptase (Invitrogen). In total, 40 ng cDNA was used for quantitative real-time PCR amplification by TaqMan Gene Expression Master Mix (Thermo Fisher Scientific). The relative transcript levels were normalized with GAPDH expression. The data were calculated with the comparative CT method.

T6 sequence (O15381 whole entry): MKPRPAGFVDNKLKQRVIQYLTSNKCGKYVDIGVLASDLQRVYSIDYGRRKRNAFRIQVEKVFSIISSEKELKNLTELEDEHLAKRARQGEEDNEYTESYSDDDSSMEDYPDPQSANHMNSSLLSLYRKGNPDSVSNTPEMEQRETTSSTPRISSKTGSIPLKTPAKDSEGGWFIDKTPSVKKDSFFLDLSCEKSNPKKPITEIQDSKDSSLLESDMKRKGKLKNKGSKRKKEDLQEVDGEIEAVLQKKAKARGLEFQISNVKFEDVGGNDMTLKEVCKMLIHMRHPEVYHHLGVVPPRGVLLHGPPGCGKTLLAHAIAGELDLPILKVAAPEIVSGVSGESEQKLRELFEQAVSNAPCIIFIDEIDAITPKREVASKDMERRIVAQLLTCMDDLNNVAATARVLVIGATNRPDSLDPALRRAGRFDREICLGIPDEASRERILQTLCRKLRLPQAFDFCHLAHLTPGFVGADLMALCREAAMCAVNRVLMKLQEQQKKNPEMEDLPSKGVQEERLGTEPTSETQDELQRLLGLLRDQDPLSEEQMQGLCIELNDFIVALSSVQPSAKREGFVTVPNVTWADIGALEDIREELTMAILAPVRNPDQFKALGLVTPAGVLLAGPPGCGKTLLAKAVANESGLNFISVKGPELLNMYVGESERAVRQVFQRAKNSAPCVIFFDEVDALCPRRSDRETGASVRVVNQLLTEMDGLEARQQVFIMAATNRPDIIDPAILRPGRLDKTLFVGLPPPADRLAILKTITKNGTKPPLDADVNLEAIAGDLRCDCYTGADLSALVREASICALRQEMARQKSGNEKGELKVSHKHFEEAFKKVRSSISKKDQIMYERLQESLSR
PRKAG1, sequence (P54619 whole entry): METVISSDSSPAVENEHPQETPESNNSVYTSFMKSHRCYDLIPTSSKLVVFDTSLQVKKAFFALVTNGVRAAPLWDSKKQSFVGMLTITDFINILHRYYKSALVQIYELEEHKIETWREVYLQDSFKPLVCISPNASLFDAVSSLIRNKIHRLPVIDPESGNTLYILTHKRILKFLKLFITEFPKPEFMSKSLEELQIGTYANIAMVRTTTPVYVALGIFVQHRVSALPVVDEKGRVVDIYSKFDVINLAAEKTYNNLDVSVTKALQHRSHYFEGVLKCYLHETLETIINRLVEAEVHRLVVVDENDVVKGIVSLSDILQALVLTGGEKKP
PRKAG1, sequence (Q13131 whole entry partner): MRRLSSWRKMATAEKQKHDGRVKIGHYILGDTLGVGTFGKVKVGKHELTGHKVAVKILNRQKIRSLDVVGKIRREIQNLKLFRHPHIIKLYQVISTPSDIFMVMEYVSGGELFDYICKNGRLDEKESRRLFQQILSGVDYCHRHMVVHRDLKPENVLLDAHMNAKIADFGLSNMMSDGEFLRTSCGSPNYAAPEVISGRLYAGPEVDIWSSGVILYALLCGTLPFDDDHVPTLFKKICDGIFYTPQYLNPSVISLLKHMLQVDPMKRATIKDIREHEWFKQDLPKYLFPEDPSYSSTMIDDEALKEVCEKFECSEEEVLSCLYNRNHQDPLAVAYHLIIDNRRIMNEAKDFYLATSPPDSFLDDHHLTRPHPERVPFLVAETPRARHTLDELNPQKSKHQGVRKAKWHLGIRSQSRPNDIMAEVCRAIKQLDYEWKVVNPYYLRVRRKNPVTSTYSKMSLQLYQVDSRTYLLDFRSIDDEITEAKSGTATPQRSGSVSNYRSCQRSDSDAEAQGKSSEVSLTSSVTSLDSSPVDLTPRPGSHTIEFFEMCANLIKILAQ
PRKAG1, sequence (Q9Y478 whole entry partner): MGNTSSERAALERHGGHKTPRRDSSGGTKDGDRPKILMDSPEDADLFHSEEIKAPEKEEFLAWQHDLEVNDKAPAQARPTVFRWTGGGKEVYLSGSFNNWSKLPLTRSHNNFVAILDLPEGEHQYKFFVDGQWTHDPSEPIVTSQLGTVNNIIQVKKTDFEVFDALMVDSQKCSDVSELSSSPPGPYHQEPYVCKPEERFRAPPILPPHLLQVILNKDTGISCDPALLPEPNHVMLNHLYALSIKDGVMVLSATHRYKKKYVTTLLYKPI
T5 sequence (O15439 whole entry): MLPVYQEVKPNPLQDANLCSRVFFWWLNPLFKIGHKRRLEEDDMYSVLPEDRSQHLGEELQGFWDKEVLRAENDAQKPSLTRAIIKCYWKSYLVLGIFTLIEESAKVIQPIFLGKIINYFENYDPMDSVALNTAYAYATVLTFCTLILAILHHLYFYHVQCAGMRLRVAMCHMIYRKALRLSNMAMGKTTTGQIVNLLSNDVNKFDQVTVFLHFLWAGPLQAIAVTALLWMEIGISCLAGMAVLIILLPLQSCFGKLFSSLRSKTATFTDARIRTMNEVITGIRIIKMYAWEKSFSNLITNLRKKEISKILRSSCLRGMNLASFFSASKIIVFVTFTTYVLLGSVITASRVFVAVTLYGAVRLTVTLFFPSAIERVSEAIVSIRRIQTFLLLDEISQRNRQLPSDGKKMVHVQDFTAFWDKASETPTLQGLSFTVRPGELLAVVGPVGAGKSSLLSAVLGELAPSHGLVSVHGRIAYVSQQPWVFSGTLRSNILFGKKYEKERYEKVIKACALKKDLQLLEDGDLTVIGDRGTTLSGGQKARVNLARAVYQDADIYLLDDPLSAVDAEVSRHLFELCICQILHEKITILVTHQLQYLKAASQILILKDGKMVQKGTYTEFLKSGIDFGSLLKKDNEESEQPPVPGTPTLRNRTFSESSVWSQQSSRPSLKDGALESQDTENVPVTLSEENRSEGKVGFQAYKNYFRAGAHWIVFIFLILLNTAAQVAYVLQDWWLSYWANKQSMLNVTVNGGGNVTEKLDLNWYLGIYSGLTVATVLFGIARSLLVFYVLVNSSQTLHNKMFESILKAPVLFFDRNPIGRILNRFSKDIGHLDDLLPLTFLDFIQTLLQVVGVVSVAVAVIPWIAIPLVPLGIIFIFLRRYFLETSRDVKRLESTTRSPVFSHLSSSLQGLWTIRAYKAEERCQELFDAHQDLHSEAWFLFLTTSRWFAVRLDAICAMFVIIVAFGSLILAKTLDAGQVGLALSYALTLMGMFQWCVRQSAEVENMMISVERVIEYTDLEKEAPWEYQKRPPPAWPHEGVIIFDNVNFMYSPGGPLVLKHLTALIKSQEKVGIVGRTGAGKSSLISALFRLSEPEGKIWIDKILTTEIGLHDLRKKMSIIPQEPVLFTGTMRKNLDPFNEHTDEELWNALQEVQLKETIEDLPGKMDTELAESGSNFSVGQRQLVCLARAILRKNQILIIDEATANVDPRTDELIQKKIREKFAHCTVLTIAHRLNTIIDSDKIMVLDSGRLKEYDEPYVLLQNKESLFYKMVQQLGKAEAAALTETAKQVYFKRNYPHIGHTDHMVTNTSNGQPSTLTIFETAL
T1 sequence (O43681 whole entry): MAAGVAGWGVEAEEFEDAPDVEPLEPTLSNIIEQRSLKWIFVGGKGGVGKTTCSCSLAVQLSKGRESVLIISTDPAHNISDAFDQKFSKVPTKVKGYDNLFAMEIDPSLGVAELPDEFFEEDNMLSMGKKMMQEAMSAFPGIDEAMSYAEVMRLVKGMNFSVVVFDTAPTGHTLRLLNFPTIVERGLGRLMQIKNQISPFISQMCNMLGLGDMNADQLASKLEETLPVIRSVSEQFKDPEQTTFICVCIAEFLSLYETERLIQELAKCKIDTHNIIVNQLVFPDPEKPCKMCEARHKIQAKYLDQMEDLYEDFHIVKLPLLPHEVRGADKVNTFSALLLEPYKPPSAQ
T7 sequence (Q9H078 127-707 limits assumed): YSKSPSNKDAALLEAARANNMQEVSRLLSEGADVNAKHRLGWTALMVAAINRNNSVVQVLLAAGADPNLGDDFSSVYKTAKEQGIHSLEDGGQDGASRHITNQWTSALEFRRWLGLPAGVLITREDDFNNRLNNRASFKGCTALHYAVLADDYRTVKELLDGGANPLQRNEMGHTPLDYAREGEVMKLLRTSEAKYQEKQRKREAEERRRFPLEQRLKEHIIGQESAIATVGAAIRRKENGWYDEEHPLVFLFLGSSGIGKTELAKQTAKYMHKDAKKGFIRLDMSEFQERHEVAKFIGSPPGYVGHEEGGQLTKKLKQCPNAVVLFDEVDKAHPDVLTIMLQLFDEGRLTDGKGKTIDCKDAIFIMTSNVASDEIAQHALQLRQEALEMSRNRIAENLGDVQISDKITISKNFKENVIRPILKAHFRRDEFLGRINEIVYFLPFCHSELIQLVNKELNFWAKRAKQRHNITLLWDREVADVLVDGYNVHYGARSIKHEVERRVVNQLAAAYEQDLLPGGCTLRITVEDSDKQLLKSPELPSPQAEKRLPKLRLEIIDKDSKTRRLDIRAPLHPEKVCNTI
T4 sequence (P27144 whole entry): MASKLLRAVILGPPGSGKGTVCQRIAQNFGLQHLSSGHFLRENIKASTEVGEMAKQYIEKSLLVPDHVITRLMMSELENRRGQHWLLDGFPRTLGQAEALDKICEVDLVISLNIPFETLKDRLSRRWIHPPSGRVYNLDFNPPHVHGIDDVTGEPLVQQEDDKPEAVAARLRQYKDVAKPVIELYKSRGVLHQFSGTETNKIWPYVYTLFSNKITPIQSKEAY
T2 sequence (O60825 whole entry): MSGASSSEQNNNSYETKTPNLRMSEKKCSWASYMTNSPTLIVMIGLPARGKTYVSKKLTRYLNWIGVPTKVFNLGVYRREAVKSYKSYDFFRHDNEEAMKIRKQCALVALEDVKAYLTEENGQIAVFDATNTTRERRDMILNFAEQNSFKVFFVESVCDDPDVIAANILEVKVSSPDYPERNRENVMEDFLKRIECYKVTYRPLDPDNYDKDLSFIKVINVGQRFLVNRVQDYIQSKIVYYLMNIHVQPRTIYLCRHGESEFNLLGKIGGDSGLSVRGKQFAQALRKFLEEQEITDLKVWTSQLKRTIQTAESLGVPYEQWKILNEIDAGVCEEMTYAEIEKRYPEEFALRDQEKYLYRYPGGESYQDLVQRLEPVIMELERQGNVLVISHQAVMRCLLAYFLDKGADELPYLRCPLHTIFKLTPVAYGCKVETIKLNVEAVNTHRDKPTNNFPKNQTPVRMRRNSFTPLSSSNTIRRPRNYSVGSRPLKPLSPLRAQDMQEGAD

For `Cn1c(=O)[nH]c2ccc(-c3cccc(C(=O)NC4CCn5ccnc5C4)c3)cc21` (stereo not shown) [Z36-MP5, 3-(3-methyl-2-oxo-2,3-dihydro-1H-benzo[d]imidazol-5-yl)-N-(5,6,7,8-tetrahydroimidazo[1,2-a]pyridin-7-yl)benzamide], the “Inhibition (%) by 1 μM Z36-MP5” value (ASNA1; ASNA1, SEQ ID NO: 41, ATP BS) was −3.04%, the “Inhibition (%) by 1 μM Z36-MP5” value (ASNA1; ASNA1, SEQ ID NO: 42, ATP BS) was 0.73% and the “Inhibition (%) by 1 μM Z36-MP5” value (PFKFB2) was 14.74%. The “Inhibition (%) by 1 μM Z36-MP5” value (PRKAG1; PRKAG1, SEQ ID NO: 167, ATP BS) was −11.56%, the “Inhibition (%) by 1 μM Z36-MP5” value (PRKAG1; PRKAG1, SEQ ID NO: 168, ATP BS) was −7.08% and the “tolerability (mouse weight, organ tissue histological staining)” value [1] was “tolerated without significant toxicity”. The “Inhibition (%) by 1 μM Z36-MP5” value (PEX1) was −4.27%, the “Inhibition (%) by 1 μM Z36-MP5” value (AK4) was −9.19% and the “Inhibition (%) by 1 μM Z36-MP5” value (ABCC4; ABCC4, SEQ ID NO: 11, ATP BS) was 1.76%. For the same compound, the “Inhibition (%) by 1 μM Z36-MP5” value (ABCC4; ABCC4, SEQ ID NO: 12, ATP BS) was 8.93%, the “Inhibition (%) by 1 μM Z36-MP5” value (NVL; SEQ ID NO: 148, ATP BS) was −1.13% and the “Inhibition (%) by 1 μM Z36-MP5” value (NVL; SEQ ID NO: 149, ATP BS) was −8.26%. The “Inhibition (%) by 1 μM Z36-MP5” value (CLPB) was −9.00%, the “T cell-mediated killing of B16F10 cells” value (B16F10 cells) was “significantly induced” and the “Inhibition (%) by 1 μM Z36-MP5” value (HNRNPU) was 6.85%. The “inhibitory activity on Mi-2β function (enhanced expression of IFN-γ-responsive genes)” value [2] was “most effective compound”.
